Laboratory results: patent US8178688B2, “Benzamidine derivatives, process for the preparation thereof and pharmaceutical composition comprising the same” (Dong Wha Pharmaceutical Co., Ltd., priority 2004, dated 2012)
Where two headings read alike, the source gives them in different places.

Tests used:
[1] = test system: cells; assay: Cytotoxicity test (MTT); assay type: cell-based; conditions: 10^−6M, 72 hrs, compared with the control group
Procedure: Cytotoxic effect of benzamidine derivatives was evaluated by the experiment described below.
The test substance was diluted in appropriate solvent at 10^−2M concentration. […] Cells to be used in cytotoxitic test were plated on a 96-well microplate in a dose of 1×10^4 cell/100 μL per well and cultured for 72 hrs. 25 μL of MTT [3-(4,5-dimethyl-2-thiazolyl)-2,5-diphenyl-2H-tetrazolium bromide] dissolved in PBS at 2 mg/mL were added before 4 hrs of the end of culture. After reaction, the plates were centrifuged, medium was decanted and 100 μL of DMSO was added to dissolve formazan. Lastly, the absorbance of developed plates was measured at 540 nm.

[2] = test system: osteoclast differentiation; assay: Inhibitory effects on osteoclast differentiation (co-culture of bone marrow cells with osteoblast, TRAP staining); assay type: cell-based, mice; conditions: for inhibition at 1 µM: Mus musculus, Osteoclast, 168 h, read-out: % inhibitory activity on osteoclastogenesis
Method in brief: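 Percent inhibition versus control is based on microscope counts of TRAP-positive osteoclasts (3 or more nuclei) after 7 days of compound exposure. Cultures paired ddY mouse marrow cells with ICR calvarial osteoblasts, driven by dexamethasone 10^−7M plus vitamin D3 10^−8M, with medium and compound changed every 2–3 days.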

[3] = 1 μm, co-culture of bone marrow cells and osteoblast, 7 days, TRAP-positive osteoclasts versus controls
[4] = 1 m, co-culture of bone marrow cells and osteoblast, 7 days, TRAP-positive osteoclasts versus controls

N=C(NO)c1ccc(OCCCCCOc2ccc(-c3csc(C4CCCCC4)n3)cc2)cc1 [Example 8, N-hydroxy-4-(5-[4-(2-cyclohexyl-1,3-thiazol-4-yl)phenoxy]pentoxy)-benzamidine]
Survival rates of the cells ([1]; MC3T3-E1 cells): 76.9% | Survival rates of the cells ([1]; ST2 cells): 46.2% | inhibition at 1 µM [2, 3]: 88.3%

N=C(NO)c1ccc(OCCCCCOc2ccc(-c3nc(NC(=O)c4ccncc4)sc3CC3CCCC3)cc2)cc1 [Example 112, N-hydroxy-4-(5-[4-(5-cyclopentylmethyl-2-(4-pyridylcarbonyl)amino-1,3-thiazol-4-yl)phenoxy]pentoxy)-benzamidine]
Survival rates of the cells ([1]; MC3T3-E1 cells): 86.7% | Survival rates of the cells ([1]; ST2 cells): 63.6% | inhibition at 1 µM [2, 4]: 76.8%

CNc1nc(-c2ccc(OCCCCCOc3ccc(C(=N)NO)cc3)cc2)c(C)s1 [Example 86, N-hydroxy-4-(5-[4-(5-methyl-2-methylamino-1,3-thiazol-4-yl)phenoxy]pentoxy)-benzamidine]
Survival rates of the cells ([1]; MC3T3-E1 cells): 100.0% | Survival rates of the cells ([1]; ST2 cells): 48.6% | inhibition at 1 µM [2, 4]: 52.9%

CCc1sc(N(CCO)CCO)nc1-c1ccc(OCCCCCOc2ccc(C(=N)NO)cc2)cc1 [Example 139, N-hydroxy-4-(5-[4-(2-(bis-(2-hydroxyethyl)amino)-5-ethyl-1,3-thiazol-4-yl)phenoxy]pentoxy)-benzamidine]
Survival rates of the cells ([1]; MC3T3-E1 cells): 77.4% | Survival rates of the cells ([1]; ST2 cells): 48.1% | inhibition at 1 µM [2, 4]: 84.1%

CN(Cc1cccnc1)c1nc(-c2ccc(OCCCCCOc3ccc(C(=N)NO)cc3)cc2)c(CC2CCCC2)s1 [Example 147, N-hydroxy-4-(5-[4-(5-cyclopentylmethyl-2-(methyl-(pyridin-3-yl-methyl)amino)-1,3-thiazol-4-yl)phenoxy]pentoxy)-benzamidine]
Survival rates of the cells ([1]; MC3T3-E1 cells): 100.0% | Survival rates of the cells ([1]; ST2 cells): 42.4% | inhibition at 1 µM [2, 4]: 81.1%

CCCCc1sc(C(C)(C)C)nc1-c1ccc(OCCCCCOc2ccc(C(=N)NO)cc2)cc1 [Example 37, N-hydroxy-4-(5-[4-(5-butyl-2-t-butyl-1,3-thiazol-4-yl)phenoxy]pentoxy)-benzamidine]
Survival rates of the cells ([1]; MC3T3-E1 cells): 74.4% | Survival rates of the cells ([1]; ST2 cells): 40.5% | inhibition at 1 µM [2]: 52.9%

Cc1sc(C(C)(C)C)nc1-c1ccc(OCCCCCOc2ccc(C(=N)NO)cc2)cc1 [Example 16, N-hydroxy-4-(5-[4-(2-t-butyl-5-methyl-1,3-thiazol-4-yl)phenoxy]pentoxy)-benzamidine]
Survival rates of the cells ([1]; MC3T3-E1 cells): 39.6% | Survival rates of the cells ([1]; ST2 cells): 30.1% | inhibition at 1 µM [2]: 64.3%

CCCCCc1nc(-c2ccc(OCCCCCOc3ccc(C(=N)NO)cc3)cc2)c(CC2CCCC2)s1 [Example 51, N-hydroxy-4-(5-[4-(5-cyclopentylmethyl-2-pentyl-1,3-thiazol-4-yl)phenoxy]pentoxy)-benzamidine]
Survival rates of the cells ([1]; MC3T3-E1 cells): 95.5% | Survival rates of the cells ([1]; ST2 cells): 66.5% | inhibition at 1 µM [2]: 74.8%

N=C(NO)c1ccc(OCCCCCOc2ccc(-c3nc(-c4ccccc4)sc3Cc3ccccc3)cc2)cc1 [Example 40, N-hydroxy-4-(5-[4-(5-benzyl-2-phenyl-1,3-thiazol-4-yl)phenoxy]pentoxy)-benzamidine]
Survival rates of the cells ([1]; MC3T3-E1 cells): 100.0% | Survival rates of the cells ([1]; ST2 cells): 53.3% | inhibition at 1 µM [2, 3]: 60.1%

CCc1sc(N2CCCCC2)nc1-c1ccc(OCCCCCOc2ccc(C(=N)NO)cc2)cc1 [Example 166, N-hydroxy-4-(5-[4-(5-ethyl-2-piperdino-1,3-thiazol-4-yl)phenoxy]pentoxy)-benzamidine]
Survival rates of the cells ([1]; MC3T3-E1 cells): 71.2% | Survival rates of the cells ([1]; ST2 cells): 52.4% | % inhibitory activity on osteoclastogenesis ([2]; co-culture of bone marrow cells and osteoblast, 7 days, TRAP-positive osteoclasts versus controls): 81.2%

CCc1sc(N(CC)Cc2cccnc2)nc1-c1ccc(OCCCCCOc2ccc(C(=N)NO)cc2)cc1 [Example 136, N-hydroxy-4-(5-[4-(5-ethyl-2-(ethyl-(pyridin-3-yl-methyl)amino)-1,3-thiazol-4-yl)phenoxy]pentoxy)-benzamidine]
Survival rates of the cells ([1]; MC3T3-E1 cells): 48.5% | Survival rates of the cells ([1]; ST2 cells): 29.9% | inhibition at 1 µM [2, 4]: 49.2%

N=C(NO)c1ccc(OCCCCCOc2ccc(-c3nc(C4CCCCC4)sc3CC3CCCC3)cc2)cc1 [Example 50, N-hydroxy-4-(5-[4-(5-cyclopentylmethyl-2-cyclohexyl-1,3-thiazol-4-yl)phenoxy]pentoxy)-benzamidine]
Survival rates of the cells ([1]; MC3T3-E1 cells): 81.0% | Survival rates of the cells ([1]; ST2 cells): 61.0% | inhibition at 1 µM [2]: 79.8%

CNc1nc(-c2ccc(OCCCCCOc3ccc(C(=N)NO)cc3)cc2)c(CC2CCCC2)s1 [Example 109, N-hydroxy-4-(5-[4-(5-cyclopentylmethyl-2-methylamino-1,3-thiazol-4-yl)phenoxy]pentoxy)-benzamidine]
Survival rates of the cells ([1]; MC3T3-E1 cells): 65.7% | Survival rates of the cells ([1]; ST2 cells): 39.0% | inhibition at 1 µM [2, 4]: 80.5%

Cc1sc(N(C)Cc2ccccc2)nc1-c1ccc(OCCCCCOc2ccc(C(=N)NO)cc2)cc1 [Example 125, N-hydroxy-4-(5-[4-(2-(benzyl-methyl-amino)-5-methyl-1,3-thiazol-4-yl)phenoxy]pentoxy)-benzamidine]
Survival rates of the cells ([1]; MC3T3-E1 cells): 57.6% | Survival rates of the cells ([1]; ST2 cells): 47.9% | inhibition at 1 µM [2, 4]: 73%

CCc1sc(NC)nc1-c1ccc(OCCCCCOc2ccc(C(=N)NO)cc2)cc1 [Example 96, N-hydroxy-4-(5-[4-(5-ethyl-2-methylamino-1,3-thiazol-4-yl)phenoxy]pentoxy)-benzamidine]
Survival rates of the cells ([1]; MC3T3-E1 cells): 65.1% | Survival rates of the cells ([1]; ST2 cells): 27.8% | inhibition at 1 µM [2, 4]: 64.3%

CCc1sc(NC(=O)c2ccncc2)nc1-c1ccc(OCCCCCOc2ccc(C(=N)NO)cc2)cc1 [Example 100, N-hydroxy-4-(5-[4-(5-ethyl-2-(4-pyridylcarbonyl)amino-1,3-thiazol-4-yl)phenoxy]pentoxy)-benzamidine]
Survival rates of the cells ([1]; MC3T3-E1 cells): 62.8% | Survival rates of the cells ([1]; ST2 cells): 39.1% | inhibition at 1 µM [2, 4]: 63%

N=C(NO)c1ccc(OCCCCCOc2ccc(-c3nc(-c4ccccc4)sc3CC3CCCC3)cc2)cc1 [Example 48, N-hydroxy-4-(5-[4-(5-cyclopentylmethyl-2-phenyl-1,3-thiazol-4-yl)phenoxy]pentoxy)-benzamidine]
Survival rates of the cells ([1]; MC3T3-E1 cells): 100.0% | Survival rates of the cells ([1]; ST2 cells): 51.2% | inhibition at 1 µM [2, 3]: 72.1%

CCS(=O)(=O)Nc1nc(-c2ccc(OCCCCCOc3ccc(C(=N)NO)cc3)cc2)c(C)s1 [Example 93, N-hydroxy-4-(5-[4-(2-ethanesulfonylamino-5-methyl-1,3-thiazol-4-yl)phenoxy]pentoxy)-benzamidine]
Survival rates of the cells ([1]; MC3T3-E1 cells): 66.8% | Survival rates of the cells ([1]; ST2 cells): 55.0% | inhibition at 1 µM [2, 4]: 63.7%

CCS(=O)(=O)N(C)c1nc(-c2ccc(OCCCCCOc3ccc(C(=N)NO)cc3)cc2)cs1 [Example 118, N-hydroxy-4-(5-[4-(2-(ethanesulfonyl-methyl-amino)-1,3-thiazol-4-yl)phenoxy]pentoxy)-benzamidine]
Survival rates of the cells ([1]; MC3T3-E1 cells): 75.3% | Survival rates of the cells ([1]; ST2 cells): 53.2% | inhibition at 1 µM [2, 4]: 82.9%

Cc1sc(NC(=O)c2ccncc2)nc1-c1ccc(OCCCCCOc2ccc(C(=N)NO)cc2)cc1 [Example 91, N-hydroxy-4-(5-[4-(5-methyl-2-(4-pyridylcarbonyl)amino-1,3-thiazol-4-yl)phenoxy]pentoxy)-benzamidine]
Survival rates of the cells ([1]; MC3T3-E1 cells): 41.3% | Survival rates of the cells ([1]; ST2 cells): 20.8% | inhibition at 1 µM [2, 4]: 92.9%

N=C(NO)c1ccc(OCCCCCOc2ccc(-c3nc(N)sc3CC3CCCC3)cc2)cc1 [Example 67, N-hydroxy-4-(5-[4-(2-amino-5-cyclopentylmethyl-1,3-thiazol-4-yl)phenoxy]pentoxy)-benzamidine]
Survival rates of the cells ([1]; MC3T3-E1 cells): 68.9% | Survival rates of the cells ([1]; ST2 cells): 40.0% | inhibition at 1 µM [2, 4]: 81.4%

Cc1nc(-c2ccc(OCCCN3CCN(CCCOc4ccc(C(=N)NO)cc4)CC3)cc2)c(C(C)C)s1 [Example 181, N-hydroxy-4-(3-[4-(3-(4-(5-isopropyl-2-methyl-1,3-thiazol-4-yl)-phenoxy)-propyl)-piperazin-1-yl]-propoxy)-benzamidine]
Survival rates of the cells ([1]; MC3T3-E1 cells): 99.5% | Survival rates of the cells ([1]; ST2 cells): 36.7% | inhibition at 1 µM [2, 4]: 54.1%

CC(C)c1sc(N(C)Cc2cccnc2)nc1-c1ccc(OCCCCCOc2ccc(C(=N)NO)cc2)cc1 [Example 141, N-hydroxy-4-(5-[4-(5-isopropyl-2-(methyl-(pyridin-3-yl-methyl)amino)-1,3-thiazol-4-yl)phenoxy]pentoxy)-benzamidine]
Survival rates of the cells ([1]; MC3T3-E1 cells): 52.8% | Survival rates of the cells ([1]; ST2 cells): 27.9% | inhibition at 1 µM [2, 4]: 74.8%

CCc1nc(-c2ccc(OCCCCCOc3ccc(C(=N)NO)cc3)cc2)c(CC2CCCC2)s1 [Example 46, N-hydroxy-4-(5-[4-(5-cyclopentylmethyl-2-ethyl-1,3-thiazol-4-yl)phenoxy]pentoxy)-benzamidine]
Survival rates of the cells ([1]; MC3T3-E1 cells): 100.0% | Survival rates of the cells ([1]; ST2 cells): 48.3% | inhibition at 1 µM [2, 3]: 96.9%

N=C(NO)c1ccc(OCCCCCOc2ccc(-c3csc(N)n3)cc2)cc1 [Example 57, N-hydroxy-4-(5-[4-(2-amino-1,3-thiazol-4-yl)phenoxy]pentoxy)-benzamidine]
Survival rates of the cells ([1]; MC3T3-E1 cells): 52.1% | Survival rates of the cells ([1]; ST2 cells): 19.9% | inhibition at 1 µM [2, 3]: 60.4%
